Experimental data from patent US20130102662A1, “USE OF INDUCIBLE NITRIC OXIDE SYNTHASE INHIBITORS AND NITRIC OXIDE […] INHIBIT POST-[…] IMMUNODEPRESSION” (University of Pittsburgh - of the Commonwealth System of …, priority 2011, published 2013).

How the values were obtained:
splenocytes [1] = experiment: Splenocyte proliferation (3H-dT uptake) 48 hours after pseudofracture + laparotomy, NOX-100 by osmotic pump; assay type: in vivo, C57BL/6 mice; conditions: PF+laparotomy, NOX-100 30 mg/kg/hr over 48 hours by intraperitoneal osmotic pump, Mean±SEM
Method: The mice were divided into six groups (n=5-10):
(§1) Mice then also received either NOX-100 at a dose of 30 mg/kg/hr or vehicle (Veh) over the 48 hour time period. A controlled, continuous drug delivery rate was established through the use of osmotic pumps inserted intraperitoneally by laparotomy. Laparotomy with pump insertion was performed at the time of trauma (0 hours). Please note that the laparotomy procedure itself is considered a significant trauma. Mice in the ‘Unmanipulated controls’ group received no experimental manipulation.
Mice were euthanized at a 48 hour time point. Measurements at this late time point included assessment of splenocyte responses. Splenocyte proliferation, a well established parameter of immune dysfunction was assessed. […] Splenocyte proliferation was assessed using tritiated thymidine (^3H-dT) uptake as counts per minute (c.p.m.).

splenocytes [2] = experiment: Splenocyte interferon-gamma release (ELISA) 48 hours after pseudofracture + laparotomy, NOX-100 by osmotic pump; assay type: in vivo, C57BL/6 mice
Method: as §1
Additional measurements of splenocyte responses at the late 48 hr time point included assessment of splenocyte interferon-gamma release, an established parameter of immune dysfunction. […] Splenocyte culture supernatants were collected and assessed by ELISA.

splenocytes [3] = experiment: Splenocyte IFNγ release 48 hours after pseudofracture trauma, mice given 1400 W; assay type: in vivo; conditions: C57BL/6 mice, 1400 W 5 mg/kg intraperitoneally
Method: Control mice received no experimental manipulation.
Mice were euthanized at 6 and 48 hours.

| Structure (SMILES) | Splenocyte proliferation, tritiated thymidine uptake after antiCD3e stimulation (splenocytes [1]; antiCD3e 1 μg/ml, p<0.05 vs vehicle (FIG. 9B)) | Splenocyte proliferation, tritiated thymidine uptake after concanavalin A stimulation (splenocytes [1]; concanavalin A 2.5 μg/ml, p=0.062 vs vehicle (FIG. 9A)) | Post-injury decrease in splenocyte release of interferon gamma, effect of administration (splenocytes [2]; 48 hrs post injury, NOX-100 30 mg/kg/hr (FIGS. 10A-B)) | Splenocyte interferon-gamma release after antiCD3e stimulation (splenocytes [2]; PF+laparotomy, NOX-100 30 mg/kg/hr over 48 hours by intraperitoneal osmotic pump, antiCD3e 1 μg/ml, Mean±SEM, p<0.05 vs vehicle (FIG. 10B)) | Interferon-gamma release by splenocytes after antiCD3e stimulation following trauma (splenocytes [3]; antiCD3e 1 μg/ml (FIG. 6)) | Concanavalin A stimulated splenocyte cytokine release (IFNγ) following trauma (splenocytes [3]; concanavalin A 2.5 μg/ml (FIG. 4)) |
| --- | --- | --- | --- | --- | --- | --- |
| CN(C[C@H](O)[C@@H](O)[C@H](O)[C@H](O)CO)C(=S)[S][Na] [NOX-100] | 45208.9±4890.5 c.p.m. | 33658.6±3787.9 c.p.m. | reversed | 604.70 ± 86.96 pg/mL | – | – |
| CC(=N)NCc1cccc(CN)c1 [1400 W, N-(3-(Aminomethyl)benzyl)acetamidine] | – | – | – | – | no depression in cytokine release | not significantly reduced |
